In ChEMBL document CHEMBL1201862, “PubChem BioAssay data set” (2004):
Activity calls are given as the source filed them.

Tests used:
[1] = biological target: Tyrosine-protein phosphatase non-receptor type 5 (Homo sapiens, UniProt P54829); test: PTPN5 enzyme inhibition – biochemical, fluorescence intensity, uHTS hits, confirmation (AID 602372); assay type: functional; conditions: read-out: IC50_Mean
[2] = biological target: Tyrosine-protein phosphatase non-receptor type 11 (Homo sapiens, UniProt Q06124); test: PTPN11 enzyme inhibitors – biochemical, selectivity assay for STEP inhibitor project, dose response (AID 602367); assay type: functional; conditions: read-out: IC50_Mean
Tyrosine-protein phosphatase non-receptor type 11, sequence (Q06124 whole entry): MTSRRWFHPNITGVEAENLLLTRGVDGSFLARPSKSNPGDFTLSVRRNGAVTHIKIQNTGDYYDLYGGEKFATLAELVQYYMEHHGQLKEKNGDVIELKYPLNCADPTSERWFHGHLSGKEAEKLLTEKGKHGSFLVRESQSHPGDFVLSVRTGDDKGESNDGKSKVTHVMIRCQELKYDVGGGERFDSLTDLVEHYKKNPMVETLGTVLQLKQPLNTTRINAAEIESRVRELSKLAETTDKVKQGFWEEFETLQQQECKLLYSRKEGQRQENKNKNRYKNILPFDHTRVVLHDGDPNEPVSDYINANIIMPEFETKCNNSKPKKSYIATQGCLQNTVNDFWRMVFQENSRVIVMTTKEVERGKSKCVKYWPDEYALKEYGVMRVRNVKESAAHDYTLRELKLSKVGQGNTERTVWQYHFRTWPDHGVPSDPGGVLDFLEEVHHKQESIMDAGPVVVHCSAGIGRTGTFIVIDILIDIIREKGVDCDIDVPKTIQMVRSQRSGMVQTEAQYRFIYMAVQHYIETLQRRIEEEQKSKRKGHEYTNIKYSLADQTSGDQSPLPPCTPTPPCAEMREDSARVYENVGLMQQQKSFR

[3] = biological target: Dual specificity protein phosphatase 3 (Homo sapiens, UniProt P51452); test: VHR phosphatase inhibition, dose response, selectivity assay for STEP inhibitor project, biochemical (AID 602374); assay type: functional; conditions: read-out: IC50_Mean
Dual specificity protein phosphatase 3, sequence (P51452 whole entry): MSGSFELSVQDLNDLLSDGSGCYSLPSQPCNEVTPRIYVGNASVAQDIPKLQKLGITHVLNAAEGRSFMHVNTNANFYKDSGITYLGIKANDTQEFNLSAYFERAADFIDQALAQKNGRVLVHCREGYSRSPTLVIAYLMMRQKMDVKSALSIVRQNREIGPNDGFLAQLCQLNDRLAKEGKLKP

[4] = biological target: T1, Microphthalmia-associated transcription factor (Homo sapiens, UniProt O75030); test: reducers of TRPM1 reporter luminescence, concentration series – cell-based, SK-MEL-5, cherry-picked, set 3, MITF inhibitor project, dose response (AID 493073); assay type: functional;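 note: SK-MEL-5 melanoma cells with luciferase driven by the MITF target TRPM1 promoter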
T1 sequence (O75030 whole entry): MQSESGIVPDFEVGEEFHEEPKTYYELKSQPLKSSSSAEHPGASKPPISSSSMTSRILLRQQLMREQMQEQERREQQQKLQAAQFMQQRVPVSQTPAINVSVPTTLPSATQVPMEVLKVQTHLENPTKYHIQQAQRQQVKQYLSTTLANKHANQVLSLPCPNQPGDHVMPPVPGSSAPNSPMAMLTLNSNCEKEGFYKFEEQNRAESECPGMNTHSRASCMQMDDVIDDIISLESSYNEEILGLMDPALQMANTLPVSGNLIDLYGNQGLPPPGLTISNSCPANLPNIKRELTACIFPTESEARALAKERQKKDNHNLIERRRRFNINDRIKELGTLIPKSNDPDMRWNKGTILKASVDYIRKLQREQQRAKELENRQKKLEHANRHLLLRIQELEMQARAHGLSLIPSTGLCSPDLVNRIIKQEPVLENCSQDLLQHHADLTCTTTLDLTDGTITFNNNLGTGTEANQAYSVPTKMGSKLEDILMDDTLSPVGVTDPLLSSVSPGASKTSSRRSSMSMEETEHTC

Protein RecA = biological target: T2, Protein RecA (Mycobacterium tuberculosis, UniProt P9WHJ3); test: Fluorescence Cell-Free Homogeneous Dose Retest to Identify Inhibitors of RecA-Intein Splicing Activity. [Related pubchem assays (depositor defined):AID2097, AID2223, AID489010, AID492950]; assay type: functional
T2 sequence (P9WHJ3 whole entry): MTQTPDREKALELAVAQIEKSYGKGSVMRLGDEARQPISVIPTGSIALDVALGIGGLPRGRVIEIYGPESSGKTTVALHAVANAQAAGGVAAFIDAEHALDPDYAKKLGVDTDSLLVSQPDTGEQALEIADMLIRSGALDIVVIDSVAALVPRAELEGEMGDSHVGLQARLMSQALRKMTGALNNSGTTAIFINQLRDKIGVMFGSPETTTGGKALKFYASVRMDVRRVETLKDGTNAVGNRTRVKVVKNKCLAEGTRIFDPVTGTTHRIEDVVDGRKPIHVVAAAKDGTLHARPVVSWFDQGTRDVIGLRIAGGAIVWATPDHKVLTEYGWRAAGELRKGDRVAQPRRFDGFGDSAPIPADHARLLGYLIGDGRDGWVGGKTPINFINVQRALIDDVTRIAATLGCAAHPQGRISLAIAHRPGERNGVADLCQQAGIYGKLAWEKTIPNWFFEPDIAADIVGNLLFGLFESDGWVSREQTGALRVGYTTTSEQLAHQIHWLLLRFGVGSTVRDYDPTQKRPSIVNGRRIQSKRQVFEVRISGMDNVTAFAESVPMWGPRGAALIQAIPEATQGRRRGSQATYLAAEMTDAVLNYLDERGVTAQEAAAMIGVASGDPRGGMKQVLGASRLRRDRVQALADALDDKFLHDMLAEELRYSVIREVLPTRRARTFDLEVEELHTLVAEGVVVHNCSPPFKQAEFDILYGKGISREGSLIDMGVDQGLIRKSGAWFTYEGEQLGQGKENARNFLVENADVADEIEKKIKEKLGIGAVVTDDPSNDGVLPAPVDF

[5] = biological target: T3, Replicative DNA helicase DnaB (Mycobacterium tuberculosis, UniProt P9WMR3); test: DnaB intein splicing inhibitors, dose response, biochemical, cell-free fluorescence (AID 449749); assay type: functional
T3 sequence (P9WMR3 whole entry): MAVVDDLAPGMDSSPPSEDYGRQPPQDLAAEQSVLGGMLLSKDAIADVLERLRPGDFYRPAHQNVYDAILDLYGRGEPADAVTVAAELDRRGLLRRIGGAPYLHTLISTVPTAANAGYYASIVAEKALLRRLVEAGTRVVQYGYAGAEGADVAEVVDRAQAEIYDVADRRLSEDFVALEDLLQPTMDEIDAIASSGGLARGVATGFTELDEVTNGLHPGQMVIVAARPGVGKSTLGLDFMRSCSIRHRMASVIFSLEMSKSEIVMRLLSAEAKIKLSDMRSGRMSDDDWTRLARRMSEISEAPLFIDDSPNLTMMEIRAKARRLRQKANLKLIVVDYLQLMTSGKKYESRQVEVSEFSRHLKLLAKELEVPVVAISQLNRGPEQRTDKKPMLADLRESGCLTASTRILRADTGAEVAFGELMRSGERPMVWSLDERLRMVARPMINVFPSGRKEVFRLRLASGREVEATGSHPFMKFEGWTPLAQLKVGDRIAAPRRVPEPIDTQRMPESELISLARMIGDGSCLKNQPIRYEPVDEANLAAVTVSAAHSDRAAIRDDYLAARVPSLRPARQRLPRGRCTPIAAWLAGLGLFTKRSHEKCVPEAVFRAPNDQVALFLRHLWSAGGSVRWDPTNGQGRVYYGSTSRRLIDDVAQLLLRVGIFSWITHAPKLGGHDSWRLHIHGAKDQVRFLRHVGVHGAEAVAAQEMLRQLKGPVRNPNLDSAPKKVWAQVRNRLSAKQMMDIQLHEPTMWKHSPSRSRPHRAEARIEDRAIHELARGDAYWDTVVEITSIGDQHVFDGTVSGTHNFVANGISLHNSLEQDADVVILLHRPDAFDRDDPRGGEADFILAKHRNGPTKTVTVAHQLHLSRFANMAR

[6] = biological target: T4, Calpain-2 catalytic subunit (Sus scrofa, UniProt P43367); test: m-calpain protease blockers, concentration series – biochemical, fluorogenic peptide substrate, dose response (AID 1420); assay type: functional
T4 sequence (P43367 whole entry): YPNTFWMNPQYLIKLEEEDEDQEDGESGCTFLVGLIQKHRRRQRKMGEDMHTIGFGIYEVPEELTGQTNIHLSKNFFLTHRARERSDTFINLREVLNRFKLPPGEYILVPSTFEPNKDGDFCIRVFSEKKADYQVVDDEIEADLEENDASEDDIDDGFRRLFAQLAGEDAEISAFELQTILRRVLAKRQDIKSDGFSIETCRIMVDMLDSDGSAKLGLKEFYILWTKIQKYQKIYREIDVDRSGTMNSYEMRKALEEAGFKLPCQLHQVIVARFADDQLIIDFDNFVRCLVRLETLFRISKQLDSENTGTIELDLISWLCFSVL

[7] = biological target: Mitochondrial peptide methionine sulfoxide reductase (Bos taurus, UniProt P54149); test: Absorbance-based biochemical high throughput dose response assay for activators of Methionine sulfoxide reductase A (MsrA).; assay type: functional
Mitochondrial peptide methionine sulfoxide reductase, sequence (P54149 whole entry): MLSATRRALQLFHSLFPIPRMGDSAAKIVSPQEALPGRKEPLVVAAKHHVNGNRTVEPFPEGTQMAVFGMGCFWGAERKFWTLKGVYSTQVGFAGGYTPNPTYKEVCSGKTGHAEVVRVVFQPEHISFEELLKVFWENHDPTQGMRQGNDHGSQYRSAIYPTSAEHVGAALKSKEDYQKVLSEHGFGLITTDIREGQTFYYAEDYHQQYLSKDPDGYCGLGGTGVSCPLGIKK

[8] = bead-based luminescence quenchers, dual-tagged ARNT – biochemical, AlphaScreen, cherry-pick, artefact control for ARNT-TACC3 interaction inhibitor project, dose response (AID 651705); assay type: functional;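 note: AlphaScreen bead proximity signal that flags compounds interfering with the detection technology; potency reflects signal decrease which marks the compound as an assay artifact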
Escherichia coli = test: microbe, parasite or virus in culture
Cytochrome P450 3A4 = Cytochrome P450 3A4 (Homo sapiens, UniProt P08684);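 note: CYP3A4 tested as one member of a cytochrome P450 panel screen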
Cytochrome P450 3A4, sequence (P08684 whole entry): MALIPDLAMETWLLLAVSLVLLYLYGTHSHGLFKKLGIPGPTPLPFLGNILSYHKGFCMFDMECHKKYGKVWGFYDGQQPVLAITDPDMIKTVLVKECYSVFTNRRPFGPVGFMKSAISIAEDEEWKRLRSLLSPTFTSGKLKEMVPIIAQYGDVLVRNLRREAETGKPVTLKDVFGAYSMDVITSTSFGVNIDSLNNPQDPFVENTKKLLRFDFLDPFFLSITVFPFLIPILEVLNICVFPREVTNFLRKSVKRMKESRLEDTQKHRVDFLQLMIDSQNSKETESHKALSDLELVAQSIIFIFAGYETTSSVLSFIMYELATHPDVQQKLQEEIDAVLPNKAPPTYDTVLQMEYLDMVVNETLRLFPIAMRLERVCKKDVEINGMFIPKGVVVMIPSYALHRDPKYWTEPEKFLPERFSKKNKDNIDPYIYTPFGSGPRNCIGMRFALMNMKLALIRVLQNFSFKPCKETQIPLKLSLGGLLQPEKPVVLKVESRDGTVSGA

Vero = test: viability of Vero cells under compound – cytotoxicity control for flavivirus capping enzyme inhibitors (AID 588742); assay type: functional; conditions: Chlorocebus sabaeus
[9] = biological target: Hepatocyte nuclear factor 4-alpha (Homo sapiens, UniProt P41235); assay type: functional, cell-based;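 note: biochemical luminescence-based dose-response counterscreen measuring inhibition of HNF4 dimerization, run alongside a screen for blockers of ABHD5–perilipin-5 interaction; split luciferase complementation of HNF4 fusion proteins in cell lysate measuring dimerization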
Hepatocyte nuclear factor 4-alpha, sequence (P41235 whole entry, the tested form may be a part): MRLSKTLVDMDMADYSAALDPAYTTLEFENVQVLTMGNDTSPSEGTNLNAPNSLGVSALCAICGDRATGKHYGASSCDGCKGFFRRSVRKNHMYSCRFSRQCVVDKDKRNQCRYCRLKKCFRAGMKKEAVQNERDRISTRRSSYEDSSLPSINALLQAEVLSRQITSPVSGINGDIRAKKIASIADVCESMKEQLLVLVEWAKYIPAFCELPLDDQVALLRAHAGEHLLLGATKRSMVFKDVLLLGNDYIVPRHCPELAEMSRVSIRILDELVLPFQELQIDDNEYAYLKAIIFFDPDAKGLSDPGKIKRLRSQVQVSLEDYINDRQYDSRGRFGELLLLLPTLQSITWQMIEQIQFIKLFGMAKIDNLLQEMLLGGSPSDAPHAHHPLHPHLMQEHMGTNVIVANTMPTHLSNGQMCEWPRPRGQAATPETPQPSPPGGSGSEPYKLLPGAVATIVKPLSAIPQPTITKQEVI

[10] = loss of viability in HepG2 cells – cell-based, CellTiter-Glo, cherry-picked, cytotoxicity control for Shn3 inhibitor project, dose response (AID 624134); assay type: functional
Genome polyprotein = Genome polyprotein (dengue virus type 2, UniProt P29990); test: flavivirus cap methylation enzyme inhibition – biochemical, confirmation dose response, primary screen (AID 588689); assay type: functional
Genome polyprotein, sequence (P29990 2492-3391 limits assumed): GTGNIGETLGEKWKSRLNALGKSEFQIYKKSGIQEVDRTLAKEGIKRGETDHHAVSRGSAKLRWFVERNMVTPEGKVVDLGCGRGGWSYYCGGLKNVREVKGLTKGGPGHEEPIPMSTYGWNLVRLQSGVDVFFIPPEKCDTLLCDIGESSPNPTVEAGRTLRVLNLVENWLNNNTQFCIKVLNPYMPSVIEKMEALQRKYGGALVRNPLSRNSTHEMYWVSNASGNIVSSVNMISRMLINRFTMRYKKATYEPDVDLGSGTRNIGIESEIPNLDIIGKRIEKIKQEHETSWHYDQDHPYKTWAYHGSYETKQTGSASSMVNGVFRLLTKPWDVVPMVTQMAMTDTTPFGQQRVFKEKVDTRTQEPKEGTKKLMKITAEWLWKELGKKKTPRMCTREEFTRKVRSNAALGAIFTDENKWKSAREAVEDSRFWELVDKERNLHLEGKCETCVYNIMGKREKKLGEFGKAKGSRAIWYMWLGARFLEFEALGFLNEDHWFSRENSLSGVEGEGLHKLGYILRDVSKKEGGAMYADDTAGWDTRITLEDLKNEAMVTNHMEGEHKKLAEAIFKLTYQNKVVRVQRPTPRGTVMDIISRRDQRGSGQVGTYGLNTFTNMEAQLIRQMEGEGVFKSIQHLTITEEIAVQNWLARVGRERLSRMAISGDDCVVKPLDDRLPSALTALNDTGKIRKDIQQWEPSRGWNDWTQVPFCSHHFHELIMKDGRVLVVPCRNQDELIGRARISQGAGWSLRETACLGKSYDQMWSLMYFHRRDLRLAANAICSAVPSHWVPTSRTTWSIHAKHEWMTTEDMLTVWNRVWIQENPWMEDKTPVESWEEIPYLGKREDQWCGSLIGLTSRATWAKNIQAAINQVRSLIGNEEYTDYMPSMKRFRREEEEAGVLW

[11] = reduction of Shn3 3'UTR-driven luciferase in osteoblasts – cell-based, Clone20 osteoblasts, firefly luciferase, cherry-picked, dose response (AID 624132); assay type: functional;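 note: firefly luciferase luminescence from reporter carrying the Shn3 3'UTR in osteoblasts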
[12] = non-specific 3'UTR reporter inhibition in Clone20-Shn3RL – cell-based, Renilla luciferase, cherry-picked, counter-screen for Shn3 inhibitor project, dose response (AID 624133); assay type: functional
[13] = biological target: Adenosylmethionine-8-amino-7-oxononanoate aminotransferase (Mycobacterium tuberculosis, UniProt P9WQ81); test: Mycobacterium tuberculosis BioA enzyme inhibitor Measured in Biochemical System Using Plate Reader - 2163-02_Inhibitor_Dose_CherryPick_Activity.; assay type: functional, Mycobacterium tuberculosis UT205
Adenosylmethionine-8-amino-7-oxononanoate aminotransferase, sequence (P9WQ81 whole entry): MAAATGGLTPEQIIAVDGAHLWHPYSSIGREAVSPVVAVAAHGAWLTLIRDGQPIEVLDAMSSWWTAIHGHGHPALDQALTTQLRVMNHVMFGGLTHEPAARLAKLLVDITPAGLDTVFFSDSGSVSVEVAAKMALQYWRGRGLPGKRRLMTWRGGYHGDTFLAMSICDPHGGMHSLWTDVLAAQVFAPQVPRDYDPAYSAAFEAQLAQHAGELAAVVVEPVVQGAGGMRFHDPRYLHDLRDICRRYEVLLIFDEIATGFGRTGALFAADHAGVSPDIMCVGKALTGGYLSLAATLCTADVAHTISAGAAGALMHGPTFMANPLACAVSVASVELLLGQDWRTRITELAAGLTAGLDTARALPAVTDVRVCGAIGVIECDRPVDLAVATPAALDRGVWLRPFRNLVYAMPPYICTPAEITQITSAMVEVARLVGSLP

[14] = biological target: Potassium voltage-gated channel subfamily KQT member 2 (Rattus norvegicus, UniProt O88943); test: blockers of KCNQ2 channel current – cell-based, automated electrophysiology, set II, rat KCNQ2, dose response (AID 588637); assay type: functional
Potassium voltage-gated channel subfamily KQT member 2, sequence (O88943 whole entry): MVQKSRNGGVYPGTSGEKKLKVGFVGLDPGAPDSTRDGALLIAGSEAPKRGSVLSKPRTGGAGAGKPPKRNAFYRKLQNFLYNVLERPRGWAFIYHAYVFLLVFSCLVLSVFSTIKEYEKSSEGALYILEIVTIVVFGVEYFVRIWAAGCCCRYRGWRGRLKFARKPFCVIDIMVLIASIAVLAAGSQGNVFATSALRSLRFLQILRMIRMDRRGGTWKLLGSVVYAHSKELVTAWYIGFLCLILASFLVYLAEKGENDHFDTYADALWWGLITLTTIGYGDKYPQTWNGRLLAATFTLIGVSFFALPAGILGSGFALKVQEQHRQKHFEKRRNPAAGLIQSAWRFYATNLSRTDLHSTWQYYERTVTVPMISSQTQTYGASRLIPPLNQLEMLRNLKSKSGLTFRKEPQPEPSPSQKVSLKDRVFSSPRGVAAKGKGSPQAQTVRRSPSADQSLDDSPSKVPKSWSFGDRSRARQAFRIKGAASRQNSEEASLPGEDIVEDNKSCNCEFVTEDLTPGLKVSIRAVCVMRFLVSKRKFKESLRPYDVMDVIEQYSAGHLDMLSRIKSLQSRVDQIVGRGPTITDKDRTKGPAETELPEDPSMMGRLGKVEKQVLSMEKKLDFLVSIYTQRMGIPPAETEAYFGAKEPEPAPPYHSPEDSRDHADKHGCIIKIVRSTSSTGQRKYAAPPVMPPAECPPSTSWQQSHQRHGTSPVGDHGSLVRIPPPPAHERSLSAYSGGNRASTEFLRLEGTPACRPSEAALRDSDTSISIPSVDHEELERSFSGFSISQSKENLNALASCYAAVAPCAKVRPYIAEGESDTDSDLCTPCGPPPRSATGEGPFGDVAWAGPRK

[15] = biological target: T5, High affinity choline transporter 1 (Homo sapiens, UniProt Q9GZV3); test: human choline transporter blockers, potency – cell-based, 10-point CRC, membrane potential dye, dose response (AID 588401); assay type: functional;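 note: membrane potential dye fluorescence of choline-evoked depolarization via CHT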
T5 sequence (Q9GZV3 whole entry): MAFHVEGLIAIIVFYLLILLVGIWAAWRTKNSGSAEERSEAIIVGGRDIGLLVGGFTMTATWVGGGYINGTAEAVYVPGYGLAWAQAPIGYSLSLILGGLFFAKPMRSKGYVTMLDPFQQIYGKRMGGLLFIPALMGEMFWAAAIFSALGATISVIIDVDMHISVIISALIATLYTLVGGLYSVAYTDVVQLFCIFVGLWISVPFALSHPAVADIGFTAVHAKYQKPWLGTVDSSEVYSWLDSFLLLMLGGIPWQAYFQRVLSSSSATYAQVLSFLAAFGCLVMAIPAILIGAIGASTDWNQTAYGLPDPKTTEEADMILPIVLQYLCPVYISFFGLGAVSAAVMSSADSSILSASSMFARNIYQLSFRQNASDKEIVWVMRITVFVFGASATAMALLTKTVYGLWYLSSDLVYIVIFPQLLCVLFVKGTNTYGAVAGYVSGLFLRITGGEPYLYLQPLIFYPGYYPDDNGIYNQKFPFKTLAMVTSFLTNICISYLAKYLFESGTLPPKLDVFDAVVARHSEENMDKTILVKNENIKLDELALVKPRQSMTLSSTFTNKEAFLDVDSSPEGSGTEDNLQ

[16] = biological target: T5, High affinity choline transporter 1; test: human choline transporter blockers, potency – cell-based, 5-point CRC, membrane potential dye, dose response (AID 504840); assay type: functional
[17] = biological target: T5, High affinity choline transporter 1; test: human choline transporter radiolabel uptake blockers – cell-based, 3H-choline uptake, CHT LV-AA trafficking mutant, CRC, dose response (AID 602208); assay type: functional
[18] = biological target: T6, Aryl hydrocarbon receptor (Homo sapiens, UniProt P35869); conditions: Potency;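 note: confirmatory quantitative high-throughput screen measuring activation of the AhR signaling pathway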
T6 sequence (P35869 whole entry): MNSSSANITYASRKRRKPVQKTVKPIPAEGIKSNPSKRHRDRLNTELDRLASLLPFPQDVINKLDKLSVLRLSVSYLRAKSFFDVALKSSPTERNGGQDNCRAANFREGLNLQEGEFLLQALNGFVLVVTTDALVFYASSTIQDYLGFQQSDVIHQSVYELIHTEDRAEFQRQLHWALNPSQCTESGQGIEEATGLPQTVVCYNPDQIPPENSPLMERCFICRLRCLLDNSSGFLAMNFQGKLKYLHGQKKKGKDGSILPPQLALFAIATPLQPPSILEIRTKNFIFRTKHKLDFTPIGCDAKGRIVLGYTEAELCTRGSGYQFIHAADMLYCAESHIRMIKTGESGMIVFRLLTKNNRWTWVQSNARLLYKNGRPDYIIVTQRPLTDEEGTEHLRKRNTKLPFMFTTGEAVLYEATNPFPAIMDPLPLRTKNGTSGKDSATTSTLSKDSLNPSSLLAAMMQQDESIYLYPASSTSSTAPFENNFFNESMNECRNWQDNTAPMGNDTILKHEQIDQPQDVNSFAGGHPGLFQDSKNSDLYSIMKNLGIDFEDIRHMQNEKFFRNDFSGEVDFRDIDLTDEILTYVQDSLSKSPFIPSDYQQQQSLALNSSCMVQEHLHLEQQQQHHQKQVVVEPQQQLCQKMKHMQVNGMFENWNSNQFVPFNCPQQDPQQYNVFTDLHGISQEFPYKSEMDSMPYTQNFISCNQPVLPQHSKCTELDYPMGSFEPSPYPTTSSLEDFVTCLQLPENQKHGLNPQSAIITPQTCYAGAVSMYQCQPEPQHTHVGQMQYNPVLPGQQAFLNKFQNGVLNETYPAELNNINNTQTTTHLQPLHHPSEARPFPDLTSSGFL

[19] = inhibition of ARNT PAS-B/TACC3 complex formation – biochemical, AlphaScreen, cherry-picked samples, confirmation (AID 651703); assay type: functional, Homo sapiens;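 note: His-tagged ARNT PAS-B domain paired with GST-TACC3 E629A dimer coactivator fragment; potency of inhibitors that break up the complex and lower AlphaScreen signal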

Tyrosine-protein phosphatase non-receptor type 5, sequence (P54829 whole entry): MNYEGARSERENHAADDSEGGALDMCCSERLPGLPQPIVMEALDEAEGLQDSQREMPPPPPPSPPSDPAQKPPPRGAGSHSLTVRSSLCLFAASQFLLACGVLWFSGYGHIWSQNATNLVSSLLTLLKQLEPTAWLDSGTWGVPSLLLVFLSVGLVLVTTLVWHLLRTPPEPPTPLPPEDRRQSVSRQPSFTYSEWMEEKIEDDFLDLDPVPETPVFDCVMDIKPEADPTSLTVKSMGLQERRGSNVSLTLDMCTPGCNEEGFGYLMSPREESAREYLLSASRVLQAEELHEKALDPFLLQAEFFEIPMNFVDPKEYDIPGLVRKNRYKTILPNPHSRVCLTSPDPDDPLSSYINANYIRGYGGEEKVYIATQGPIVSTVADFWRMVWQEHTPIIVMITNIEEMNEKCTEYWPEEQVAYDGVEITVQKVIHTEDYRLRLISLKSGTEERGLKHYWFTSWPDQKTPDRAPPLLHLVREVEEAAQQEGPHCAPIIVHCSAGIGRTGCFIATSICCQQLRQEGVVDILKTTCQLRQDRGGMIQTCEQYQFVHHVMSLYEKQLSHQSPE

CCOc1ccc(CCNC(=O)CS(=O)(=O)Cc2nc(-c3ccc(OC)cc3)oc2C)cc1
IC50 [1]: > 80 µM (inactive)
IC50 [2]: 9.1 µM (active)
IC50 [3]: 26.8 µM (inactive)

CCNC1=C(Cl)C(=O)c2ccccc2C1=O
AC50 [4]: 3.84 µM (active)
EC50 (Protein RecA): 20 µM (active)
AC50 [5]: 6.98 µM (active)
IC50 [6]: > 50 µM (not active)
EC50 [7]: > 104 µM (inactive)

Cn1c(-c2ccccc2)cnc1N
AC50 [8]: 102 µM (active)
AC50 (Escherichia coli): 22.7 µM (active)
AC50 (Cytochrome P450 3A4): 28.2 µM (inconclusive)

CSc1nnc(NC(=O)c2nc(S(=O)(=O)Cc3ccccc3)ncc2Cl)s1
CC50 (Vero): 31.1 µM (active)
IC50 [9]: 5.52 µM (active)
AC50 [10]: 67.4 µM (active)
IC50 (Genome polyprotein): 50.6 µM (active)
EC50 (Protein RecA): 4.73 µM (active)
AC50 [5]: 5.23 µM (active)
AC50 [11]: 1.35 µM (active)
AC50 [12]: 14.5 µM (active)

CC(=O)c1ccc(N2CCN(C(=O)Cc3ccccc3)CC2)c(F)c1
AC50 [13]: 4.97 µM (active)

COc1cc(C(=O)Nc2cccc(C)c2C)c(Br)c(OC)c1OC
IC50 [14]: 0.633 µM (active)

COc1ccc(C(=O)NC(C)Cc2cnccn2)cc1OC1CCN(C(C)C)CC1 (stereo unspecified)
IC50 [15]: 4.47 µM (active)
IC50 [16]: 9.9 µM (active)
IC50 [17]: 7.51 µM (active)

CCOP(=S)(OCC)Oc1ncn(-c2ccccc2)n1 [TRIAZOPHOS]
AC50 [18]: 11.2 µM (inconclusive)

C/C(CC(=O)NCc1ccccc1Cl)=N/NC(=O)c1ccccn1
AC50 [19]: 77.8 µM (active)
